Here are results for 12 compounds from patent US11661426B2, “Imidazole-containing inhibitors of ALK2 kinase” (BioCryst Pharmaceuticals, Inc., priority 2017, dated 2023).

In this test the target is ALK2 (Homo sapiens (Human), UniProt Q04771). Briefly: ALK2 inhibition, LanthaScreen Eu Kinase Binding Assay (ThermoFisher Scientific / Life Technologies). Conditions: read-out: Measured Ki (IC50) Value for Compounds: IC50. As for the experimental part: Biochemical assays to measure the inhibitory effects of the compounds were performed by ThermoFisher Scientific (Life Technologies). ALK2 inhibition was tested using LanthaScreen™ Eu Kinase Binding Assay screening protocol.
Chain of ALK2 (Q04771 21-509): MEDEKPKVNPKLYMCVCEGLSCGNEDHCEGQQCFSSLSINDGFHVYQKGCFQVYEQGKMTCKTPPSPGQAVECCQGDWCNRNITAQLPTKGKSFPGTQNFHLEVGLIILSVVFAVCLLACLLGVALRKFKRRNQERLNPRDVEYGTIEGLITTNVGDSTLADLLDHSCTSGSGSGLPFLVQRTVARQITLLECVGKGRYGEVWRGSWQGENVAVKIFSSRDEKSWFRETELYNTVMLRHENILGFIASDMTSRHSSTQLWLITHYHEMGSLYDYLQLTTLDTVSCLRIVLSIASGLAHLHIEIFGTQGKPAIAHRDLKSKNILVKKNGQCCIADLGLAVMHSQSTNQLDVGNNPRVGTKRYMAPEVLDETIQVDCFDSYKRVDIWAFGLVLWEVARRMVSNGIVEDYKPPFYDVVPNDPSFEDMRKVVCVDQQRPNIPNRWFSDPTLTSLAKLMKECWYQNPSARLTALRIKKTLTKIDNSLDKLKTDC
(In general: In TR-FRET formats the signal depends on donor and acceptor labels being close together.)

As usually defined, the IC50 is the concentration that inhibits the measured activity by half. Take `COc1cc(-n2cnc(Nc3nc(N4CCCC4)nc4cccnc34)c2)cc(OC)c1OC` [Compound 188a, 2-(pyrrolidin-1-yl)-N-(1-(3,4,5-trimethoxyphenyl)-1H-imidazol-4-yl)pyrido[3,2-d]pyrimidin-4-amine]: the IC50 was less than 100 nM.
In the case of `COc1cc(-n2cnc(Nc3nc(N4CCCCC4)c4ccc(CN5CCCC5)cc4n3)c2)cc(OC)c1OC` [Compound 409e, 4-(piperidin-1-yl)-7-(pyrrolidin-1-ylmethyl)-N-(1-(3,4,5-trimethoxyphenyl)-1H-imidazol-4-yl)quinazolin-2-amine], the IC50 is less than 100 nM.
As for `COc1cc(-n2cnc(Nc3nc(N4CCC[C@H]4CO)c4c(ccn4S(=O)(=O)c4ccc(C)cc4)n3)c2)cc(OC)c1OC` [Compound 180b, (S)-(1-(5-tosyl-2-((1-(3,4,5-trimethoxyphenyl)-1H-imidazol-4-yl)amino)-5H-pyrrolo[3,2-d]pyrimidin-4-yl)pyrrolidin-2-yl)methanol], the figure is less than 100 nM.
As for `COc1cc(-n2cnc(Nc3nc(N4CCC[C@@H]4CO)c4cccn4n3)c2)cc(OC)c1OC` [Compound 227b, (R)-(1-(2-((1-(3,4,5-trimethoxyphenyl)-1H-imidazol-4-yl)amino)pyrrolo[2,1-f][1,2,4]triazin-4-yl)pyrrolidin-2-yl)methanol], the figure is 100 to 1000 nM; as for `COc1cc(-n2cnc(Nc3nc(N4CCC[C@H]4CO)nc4c3cnn4C)c2)cc(OC)c1OC` [Compound 336c, (S)-(1-(1-methyl-4-((1-(3,4,5-trimethoxyphenyl)-1H-imidazol-4-yl)amino)-1H-pyrazolo[3,4-d]pyrimidin-6-yl)pyrrolidin-2-yl)methanol], less than 100 nM; as for `COc1cc(-n2cnc(Nc3nc(N4CCC[C@H]4CO)c4cccn4n3)c2)ccc1C#N` [Compound 258d, (S)-4-(4-((4-(2-(hydroxymethyl)pyrrolidin-1-yl)pyrrolo[2,1-f][1,2,4]triazin-2-yl)amino)-1H-imidazol-1-yl)-2-methoxybenzonitrile], more than 1000 nM.
As for `COC(=O)c1cc(-n2cnc(Nc3nc(N4CCC[C@H]4C(N)=O)nn4cccc34)c2)cc(OC)c1OC` [Compound 350d, (S)-methyl 5-(4-((2-(2-carbamoylpyrrolidin-1-yl)pyrrolo[2,1-f][1,2,4]triazin-4-yl)amino)-1H-imidazol-1-yl)-2,3-dimethoxybenzoate], the figure is less than 100 nM; as for `COc1cc(-n2cnc(Nc3nc(N4CCC[C@H]4CO)nc4sc(CN5CCOCC5)cc34)c2)cc(OC)c1OC` [Compound 97d, (S)-(1-(6-(morpholinomethyl)-4-((1-(3,4,5-trimethoxyphenyl)-1H-imidazol-4-yl)amino)thieno[2,3-d]pyrimidin-2-yl)pyrrolidin-2-yl)methanol], less than 100 nM.
For the compound `COc1cc(-n2cnc(Nc3nc4c(c(N5CCC[C@H]5CO)n3)CCNC4)c2)cc(OC)c1OC` [Compound 182d, (S)-(1-(2-((1-(3,4,5-trimethoxyphenyl)-1H-imidazol-4-yl)amino)-5,6,7,8-tetrahydropyrido[3,4-d]pyrimidin-4-yl)pyrrolidin-2-yl)methanol], the IC50 was less than 100 nM.
As to `COc1cc(-n2cnc(Nc3nc(N4CCC[C@H]4CO)nc4cc(OC(C)C)ccc34)c2)cc(OC)c1OC` [Compound 145h, (S)-(1-(7-isopropoxy-4-((1-(3,4,5-trimethoxyphenyl)-1H-imidazol-4-yl)amino)quinazolin-2-yl)pyrrolidin-2-yl)methanol], the IC50 was less than 100 nM.
For `COc1cc(-n2cnc(Nc3nc(N4CCC[C@@H]4CO)nn4cccc34)c2)cc(OC)c1OC` [Compound 238a, (R)-(1-(4-((1-(3,4,5-trimethoxyphenyl)-1H-imidazol-4-yl)amino)pyrrolo[2,1-f][1,2,4]triazin-2-yl)pyrrolidin-2-yl)methanol] the value was less than 100 nM; for `COc1cc(-n2cnc(Nc3nc(-c4cccc(C(N)=O)c4)nc4sccc34)c2)cc(OC)c1OC` [Compound 146a, 3-(4-((1-(3,4,5-trimethoxyphenyl)-1H-imidazol-4-yl)amino)thieno[2,3-d]pyrimidin-2-yl)benzamide], less than 100 nM.
